In patent US20240124427A1, “HYDROXYHETEROCYCLOALKANE-CARBAMOYL DERIVATIVES” (Idorsia Pharmaceuticals Ltd, priority 2021, published 2024):
pIC50: −log10 of the molar value.

Biological target: human Gal-3 (hGal-3) (Homo sapiens (Human), UniProt P17931)
Test: Competitive binding assay: biotinylated hGal-3 binding to microplate-adsorbed asialofetuin (ASF)
Conditions: Activity on hGal-3; mean values of several measurements; mixture of diastereomers measured where not separated
Procedure, shortened: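 Spectrophotometric read-out using streptavidin-peroxidase and ABTS quantifies how much biotin-hGal-3 remains bound to microplate asialofetuin after 3 h at 4 °C with compound present. Values are means of repeated IC50 determinations.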

human Gal-3 (hGal-3), sequence (P17931 whole entry): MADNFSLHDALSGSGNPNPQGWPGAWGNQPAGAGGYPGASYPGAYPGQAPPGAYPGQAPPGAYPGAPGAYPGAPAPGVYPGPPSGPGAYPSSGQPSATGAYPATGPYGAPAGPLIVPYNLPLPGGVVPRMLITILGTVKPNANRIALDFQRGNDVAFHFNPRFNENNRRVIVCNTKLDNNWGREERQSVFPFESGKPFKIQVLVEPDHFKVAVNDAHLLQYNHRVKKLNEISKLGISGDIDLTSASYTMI

SMILES | pIC50
CO[C@@H]1[C@@H](n2cc(-c3cc(F)c(F)c(F)c3)nn2)[C@@H](O)[C@@H](CO)O[C@H]1C(=O)N(c1cc(C)cc(Br)c1)[C@H]1CN(C=O)C[C@@H]1O [Example 90, (2R,3R,4S,5R,6R)-N-(3-bromo-5-methylphenyl)-N-((3S,4S)-1-formyl-4-hydroxypyrrolidin-3-yl)-5-hydroxy-6-(hydroxymethyl)-3-methoxy-4-(4-(3,4,5-trifluorophenyl)-1H-1,2,3-triazol-1-yl)tetrahydro-2H-pyran-2-carboxamide] | 7.70
CO[C@@H]1[C@@H](n2cc(-c3ccc(C)c(F)c3F)nn2)[C@@H](O)[C@@H](CO)O[C@H]1C(=O)N(c1cc(C)cc(Br)c1)[C@H]1CN(C=O)C[C@@H]1O [Example 92, (2R,3R,4S,5R,6R)-N-(3-bromo-5-methylphenyl)-4-(4-(2,3-difluoro-4-methylphenyl)-1H-1,2,3-triazol-1-yl)-N-((3S,4S)-1-formyl-4-hydroxypyrrolidin-3-yl)-5-hydroxy-6-(hydroxymethyl)-3-methoxytetrahydro-2H-pyran-2-carboxamide] | 7.72
CO[C@@H]1[C@@H](n2cc(-c3cc(F)c(F)c(F)c3)nn2)[C@@H](O)[C@@H](CO)O[C@H]1C(=O)N(c1cc(Br)cc(C#N)c1)[C@@H]1CN(C=O)C[C@H]1O [Example 93, (2R,3R,4S,5R,6R)-N-(3-bromo-5-cyanophenyl)-N-((3R,4R)-1-formyl-4-hydroxypyrrolidin-3-yl)-5-hydroxy-6-(hydroxymethyl)-3-methoxy-4-(4-(3,4,5-trifluorophenyl)-1H-1,2,3-triazol-1-yl)tetrahydro-2H-pyran-2-carboxamide] | 7.10
CO[C@@H]1[C@@H](n2cc(-c3ccc(C)c(F)c3F)nn2)[C@@H](O)[C@@H](CO)O[C@H]1C(=O)N(c1cc(C)cc(Br)c1)[C@@H]1CN(C=O)C[C@H]1O [Example 95, (2R,3R,4S,5R,6R)-N-(3-bromo-5-methylphenyl)-4-(4-(2,3-difluoro-4-methylphenyl)-1H-1,2,3-triazol-1-yl)-N-((3R,4R)-1-formyl-4-hydroxypyrrolidin-3-yl)-5-hydroxy-6-(hydroxymethyl)-3-methoxytetrahydro-2H-pyran-2-carboxamide] | 7.40
CCN1C[C@H](O)[C@@H](N(C(=O)[C@@H]2O[C@H](CO)[C@H](O)[C@H](n3cc(-c4cc(F)c(F)c(F)c4)nn3)[C@H]2OC)c2cc(C)cc(Br)c2)C1 [Example 97, (2R,3R,4S,5R,6R)-N-(3-bromo-5-methylphenyl)-N-((3S,4S)-1-ethyl-4-hydroxypyrrolidin-3-yl)-5-hydroxy-6-(hydroxymethyl)-3-methoxy-4-(4-(3,4,5-trifluorophenyl)-1H-1,2,3-triazol-1-yl)tetrahydro-2H-pyran-2-carboxamide] | 7.62
CO[C@@H]1[C@@H](n2cc(-c3cc(F)c(F)c(F)c3)nn2)[C@@H](O)[C@@H](CO)O[C@H]1C(=O)N(c1cc(Cl)cc(Cl)c1)[C@H]1CCOC[C@@H]1O [Example 99, (2R,3R,4S,5R,6R)-N-(3,5-dichlorophenyl)-5-hydroxy-6-(hydroxymethyl)-N-((3R,4S)-3-hydroxytetrahydro-2H-pyran-4-yl)-3-methoxy-4-(4-(3,4,5-trifluorophenyl)-1H-1,2,3-triazol-1-yl)tetrahydro-2H-pyran-2-carboxamide] | 7.80
CO[C@@H]1[C@@H](n2cc(-c3cc(F)c(F)c(F)c3)nn2)[C@@H](O)[C@@H](CO)O[C@H]1C(=O)N(c1cc(Cl)cc(C#N)c1)[C@H]1CCOC[C@@H]1O [Example 100, (2R,3R,4S,5R,6R)-N-(3-chloro-5-cyanophenyl)-5-hydroxy-6-(hydroxymethyl)-N-((3R,4S)-3-hydroxytetrahydro-2H-pyran-4-yl)-3-methoxy-4-(4-(3,4,5-trifluorophenyl)-1H-1,2,3-triazol-1-yl)tetrahydro-2H-pyran-2-carboxamide] | 7.80
CO[C@@H]1[C@@H](n2cc(-c3cc(F)c(F)c(F)c3)nn2)[C@@H](O)[C@@H](CO)O[C@H]1C(=O)N(c1cc(C)cc(Br)c1)[C@H]1CCOC[C@@H]1O [Example 102, (2R,3R,4S,5R,6R)-N-(3-bromo-5-methylphenyl)-5-hydroxy-6-(hydroxymethyl)-N-((3R,4S)-3-hydroxytetrahydro-2H-pyran-4-yl)-3-methoxy-4-(4-(3,4,5-trifluorophenyl)-1H-1,2,3-triazol-1-yl)tetrahydro-2H-pyran-2-carboxamide] | 7.85
CO[C@@H]1[C@@H](n2cc(-c3cc(F)c(F)c(F)c3)nn2)[C@@H](O)[C@@H](CO)O[C@H]1C(=O)N(c1cc(C)cc(Br)c1)[C@@H]1CCOC[C@H]1O [Example 104, (2R,3R,4S,5R,6R)-N-(3-bromo-5-methylphenyl)-5-hydroxy-6-(hydroxymethyl)-N-((3S,4R)-3-hydroxytetrahydro-2H-pyran-4-yl)-3-methoxy-4-(4-(3,4,5-trifluorophenyl)-1H-1,2,3-triazol-1-yl)tetrahydro-2H-pyran-2-carboxamide] | 6.59

The remaining compounds from weak to strong by pIC50, led by results:

pIC50 | SMILES
6.52 | CO[C@@H]1[C@@H](n2cc(-c3cc(F)c(F)c(F)c3)nn2)[C@@H](O)[C@@H](CO)O[C@H]1C(=O)N(c1cc(Cl)cc(Cl)c1)[C@@H]1CCOC[C@H]1O [Example 103, (2R,3R,4S,5R,6R)-N-(3,5-dichlorophenyl)-5-hydroxy-6-(hydroxymethyl)-N-((3S,4R)-3-hydroxytetrahydro-2H-pyran-4-yl)-3-methoxy-4-(4-(3,4,5-trifluorophenyl)-1H-1,2,3-triazol-1-yl)tetrahydro-2H-pyran-2-carboxamide]
7.07 | CO[C@@H]1[C@@H](n2cc(-c3cc(F)c(F)c(F)c3)nn2)[C@@H](O)[C@@H](CO)O[C@H]1C(=O)N(c1cc(C)cc(Br)c1)[C@@H]1CN(C=O)C[C@H]1O [Example 94, (2R,3R,4S,5R,6R)-N-(3-bromo-5-methylphenyl)-N-((3R,4R)-1-formyl-4-hydroxypyrrolidin-3-yl)-5-hydroxy-6-(hydroxymethyl)-3-methoxy-4-(4-(3,4,5-trifluorophenyl)-1H-1,2,3-triazol-1-yl)tetrahydro-2H-pyran-2-carboxamide]
7.29 | CO[C@@H]1[C@@H](n2cc(-c3cc(F)c(F)c(F)c3)nn2)[C@@H](O)[C@@H](CO)O[C@H]1C(=O)N(c1cc(C)cc(Br)c1)[C@H]1CN(C)C[C@@H]1O [Example 96, (2R,3R,4S,5R,6R)-N-(3-bromo-5-methylphenyl)-5-hydroxy-N-((3S,4S)-4-hydroxy-1-methylpyrrolidin-3-yl)-6-(hydroxymethyl)-3-methoxy-4-(4-(3,4,5-trifluorophenyl)-1H-1,2,3-triazol-1-yl)tetrahydro-2H-pyran-2-carboxamide]
7.42 | CO[C@@H]1[C@@H](n2cc(-c3cc(F)c(F)c(F)c3)nn2)[C@@H](O)[C@@H](CO)O[C@H]1C(=O)N(c1cc(Br)cc(C#N)c1)[C@H]1CN(C=O)C[C@@H]1O [Example 89, (2R,3R,4S,5R,6R)-N-(3-bromo-5-cyanophenyl)-N-((3S,4S)-1-formyl-4-hydroxypyrrolidin-3-yl)-5-hydroxy-6-(hydroxymethyl)-3-methoxy-4-(4-(3,4,5-trifluorophenyl)-1H-1,2,3-triazol-1-yl)tetrahydro-2H-pyran-2-carboxamide]
7.54 | CO[C@@H]1[C@@H](n2cc(-c3cc(F)c(F)c(F)c3)nn2)[C@@H](O)[C@@H](CO)O[C@H]1C(=O)N(c1cc(C)cc(Br)c1)[C@H]1CN(S(C)(=O)=O)C[C@@H]1O [Example 98, (2R,3R,4S,5R,6R)-N-(3-bromo-5-methylphenyl)-5-hydroxy-N-((3S,4S)-4-hydroxy-1-(methylsulfonyl)pyrrolidin-3-yl)-6-(hydroxymethyl)-3-methoxy-4-(4-(3,4,5-trifluorophenyl)-1H-1,2,3-triazol-1-yl)tetrahydro-2H-pyran-2-carboxamide]
7.70 | CO[C@@H]1[C@@H](n2cc(-c3ccc(Br)c(F)c3F)nn2)[C@@H](O)[C@@H](CO)O[C@H]1C(=O)N(c1cc(Cl)cc(Cl)c1)[C@H]1CN(C=O)C[C@@H]1O [Example 91, (2R,3R,4S,5R,6R)-4-(4-(4-bromo-2,3-difluorophenyl)-1H-1,2,3-triazol-1-yl)-N-(3,5-dichlorophenyl)-N-((3S,4S)-1-formyl-4-hydroxypyrrolidin-3-yl)-5-hydroxy-6-(hydroxymethyl)-3-methoxytetrahydro-2H-pyran-2-carboxamide]
7.74 | CO[C@@H]1[C@@H](n2cc(-c3cc(F)c(F)c(F)c3)nn2)[C@@H](O)[C@@H](CO)O[C@H]1C(=O)N(c1cc(Cl)cc(Cl)c1)[C@H]1COCC[C@@H]1O [Example 105, (2R,3R,4S,5R,6R)-N-(3,5-dichlorophenyl)-5-hydroxy-6-(hydroxymethyl)-N-((3S,4S)-4-hydroxytetrahydro-2H-pyran-3-yl)-3-methoxy-4-(4-(3,4,5-trifluorophenyl)-1H-1,2,3-triazol-1-yl)tetrahydro-2H-pyran-2-carboxamide]
7.85 | CO[C@@H]1[C@@H](n2cc(-c3cc(F)c(F)c(F)c3)nn2)[C@@H](O)[C@@H](CO)O[C@H]1C(=O)N(c1cc(Br)cc(C#N)c1)[C@H]1CCOC[C@@H]1O [Example 101, (2R,3R,4S,5R,6R)-N-(3-bromo-5-cyanophenyl)-5-hydroxy-6-(hydroxymethyl)-N-((3R,4S)-3-hydroxytetrahydro-2H-pyran-4-yl)-3-methoxy-4-(4-(3,4,5-trifluorophenyl)-1H-1,2,3-triazol-1-yl)tetrahydro-2H-pyran-2-carboxamide]
7.89 | CO[C@@H]1[C@@H](n2cc(-c3cc(F)c(F)c(F)c3)nn2)[C@@H](O)[C@@H](CO)O[C@H]1C(=O)N(c1cc(C)cc(Br)c1)[C@H]1COCC[C@@H]1O [Example 106, (2R,3R,4S,5R,6R)-N-(3-bromo-5-methylphenyl)-5-hydroxy-6-(hydroxymethyl)-N-((3S,4S)-4-hydroxytetrahydro-2H-pyran-3-yl)-3-methoxy-4-(4-(3,4,5-trifluorophenyl)-1H-1,2,3-triazol-1-yl)tetrahydro-2H-pyran-2-carboxamide]
